Here are results for 21 compounds from patent publication US10479780B2, “Aminopyrazole derivatives” (Chugai Seiyaku Kabushiki Kaisha, priority 2015, dated 2019).

Holding throughout (format): biochemical
One test concerns the target T1, human Yes1 enzyme (Homo sapiens, UniProt P07947).
T1 construct: made in house
Briefly: Yes1 enzyme inhibitory activity (time-resolved fluorometry, biotinylated peptide phosphorylation). As to conditions: read-out: YES_IC50. In outline: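 Inhibition was expressed against a compound-free control to give IC50, using TR-FRET read-out (Eu-cryptate anti-pTyr antibody, streptavidin-XL665).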

Another test has as its target T2, human Src enzyme (Homo sapiens, UniProt P12931).
T2 construct: purchased Carna Biosciences, Inc. 08-173
Briefly: Src enzyme inhibitory activity (time-resolved fluorometry, biotinylated peptide phosphorylation). Particulars: read-out: SRC_IC50. Summed up:
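Compounds were tested for blocking tyrosine phosphorylation of a biotinylated peptide substrate by recombinant human Src. Phosphorylated product was quantified by time-resolved fluorometry using europium cryptate and XL665 conjugates, and IC50 was calculated against the compound-free control.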

Another test addresses T3, human Lck enzyme (Homo sapiens, UniProt P06239).
T3 construct: purchased Carna Biosciences, Inc. 08-170
Briefly: Lck enzyme inhibitory activity (time-resolved fluorometry, biotinylated peptide phosphorylation). Particulars: read-out: LCK_IC50. Summed up: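 Readout pairs a europium cryptate-labelled anti-phosphotyrosine antibody with XL665-streptavidin, measured by time-resolved fluorescence. IC50 derived from percent inhibition against untreated controls.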

The mark [1] stands for this setting: biotinylated peptide phosphorylation.

Read-outs that look alike come from different tables or passages of the source.

T1 sequence (P07947 whole entry): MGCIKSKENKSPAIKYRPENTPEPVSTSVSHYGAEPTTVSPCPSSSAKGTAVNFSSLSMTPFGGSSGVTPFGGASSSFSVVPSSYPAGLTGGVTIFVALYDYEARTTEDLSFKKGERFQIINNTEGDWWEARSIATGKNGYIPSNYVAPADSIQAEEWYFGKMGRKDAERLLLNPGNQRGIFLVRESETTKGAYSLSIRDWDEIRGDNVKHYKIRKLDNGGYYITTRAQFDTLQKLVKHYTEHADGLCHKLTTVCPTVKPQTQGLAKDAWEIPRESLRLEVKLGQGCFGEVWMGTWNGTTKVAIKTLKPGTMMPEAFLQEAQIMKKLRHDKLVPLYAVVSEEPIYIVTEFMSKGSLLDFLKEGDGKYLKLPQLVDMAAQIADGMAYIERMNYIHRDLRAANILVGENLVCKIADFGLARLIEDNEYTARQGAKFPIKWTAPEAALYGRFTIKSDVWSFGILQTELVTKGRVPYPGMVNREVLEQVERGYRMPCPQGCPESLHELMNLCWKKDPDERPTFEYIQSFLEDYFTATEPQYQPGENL
T2 sequence (P12931 whole entry): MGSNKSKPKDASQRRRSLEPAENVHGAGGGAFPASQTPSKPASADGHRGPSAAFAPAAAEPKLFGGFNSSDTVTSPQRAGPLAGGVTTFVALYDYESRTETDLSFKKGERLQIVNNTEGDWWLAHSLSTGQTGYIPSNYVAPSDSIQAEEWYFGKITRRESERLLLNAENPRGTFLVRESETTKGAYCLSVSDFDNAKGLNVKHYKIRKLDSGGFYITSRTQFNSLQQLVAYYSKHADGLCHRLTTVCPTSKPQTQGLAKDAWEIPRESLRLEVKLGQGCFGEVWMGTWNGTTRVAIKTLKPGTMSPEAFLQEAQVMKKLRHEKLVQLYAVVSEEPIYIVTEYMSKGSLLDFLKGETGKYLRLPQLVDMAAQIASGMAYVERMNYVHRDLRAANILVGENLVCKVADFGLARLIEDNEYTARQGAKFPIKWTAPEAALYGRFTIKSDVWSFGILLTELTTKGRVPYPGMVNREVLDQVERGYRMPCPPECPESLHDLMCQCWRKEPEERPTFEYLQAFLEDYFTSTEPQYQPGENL
T3 sequence (P06239 whole entry): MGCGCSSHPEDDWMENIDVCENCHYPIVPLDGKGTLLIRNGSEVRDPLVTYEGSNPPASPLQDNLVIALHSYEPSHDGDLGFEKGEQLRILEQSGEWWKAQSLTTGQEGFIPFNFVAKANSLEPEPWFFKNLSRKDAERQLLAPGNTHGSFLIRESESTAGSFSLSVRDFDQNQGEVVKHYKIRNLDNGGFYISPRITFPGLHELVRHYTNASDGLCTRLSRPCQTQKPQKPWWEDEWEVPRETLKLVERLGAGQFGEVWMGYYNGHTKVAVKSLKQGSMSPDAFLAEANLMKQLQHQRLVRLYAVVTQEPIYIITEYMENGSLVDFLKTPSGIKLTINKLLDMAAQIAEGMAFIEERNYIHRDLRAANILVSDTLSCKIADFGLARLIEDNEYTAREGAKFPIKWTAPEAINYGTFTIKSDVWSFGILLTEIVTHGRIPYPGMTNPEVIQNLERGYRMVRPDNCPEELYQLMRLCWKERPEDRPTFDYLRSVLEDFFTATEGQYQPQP

For the compound `Cc1cc(-n2ncc(C(=O)c3cc4cc(OCC(F)F)c(N5C(=O)NC(C)(C)C5=O)cc4[nH]3)c2N)ccc1Oc1ccccc1F` [Example 5-1-170, 3-[2-[5-amino-1-[4-(2-fluorophenoxy)-3-methylphenyl]pyrazole-4-carbonyl]-5-(2,2-difluoroethoxy)-1H-indol-6-yl]-5,5-dimethylimidazolidine-2,4-dione], the IC50 on human Yes1 enzyme turned out to be 1.3 nM; at human Src enzyme it was 490 nM; on human Lck enzyme it was 89 nM.

As for `Cc1cc(Oc2cccc(F)c2)ccc1-n1ncc(C(=O)c2cc3cc(F)c(C4CCN(C(C)C)CC4)cc3[nH]2)c1N` [Example 5-1-009, [5-amino-1-[4-(3-fluorophenoxy)-2-methylphenyl]pyrazol-4-yl]-[5-fluoro-6-(1-propan-2-ylpiperidin-4-yl)-1H-indol-2-yl] methanone], the IC50 was found to be 1.9 nM at human Yes1 enzyme, 9.3 nM at human Src enzyme and 2.8 nM at human Lck enzyme.

On to `Cc1cc(Oc2ccccc2F)cc(C)c1-n1ncc(C(=O)c2cc3cc(F)c(NS(C)(=O)=O)cc3[nH]2)c1N` [Example 5-1-032, N-[2-[5-amino-1-[4-(2-fluorophenoxy)-2,6-dimethylphenyl]pyrazole-4-carbonyl]-5-fluoro-1H-indol-6-yl]methanesulfonamide], for which the results for the IC50 on human Yes1 enzyme, at human Src enzyme and at human Lck enzyme were 11 nM, 380 nM and 130 nM, respectively.

For `Cc1cc(Oc2c(F)cccc2F)ncc1-n1ncc(C(=O)c2cc3cc(OCC(F)F)c(NS(=O)(=O)C4CC4)cc3[nH]2)c1N` [Example 4-24-030, N-[2-[5-amino-1-[6-(2,6-difluorophenoxy)-4-methylpyridin-3-yl]pyrazole-4-carbonyl]-5-(2,2-difluoroethoxy)-1H-indol-6-yl]cyclopropanesulfonamide], the IC50 at human Yes1 enzyme (setting [1]) was 1.7 nM; at human Src enzyme (setting [1]), 120 nM; on human Lck enzyme (setting [1]), 23 nM.

Turning to `Cc1cc(Oc2ccccc2F)ccc1-n1ncc(C(=O)c2cc3cc(OC(F)F)c(NS(C)(=O)=O)cc3[nH]2)c1N` [Example 4-24-002, N-[2-[5-amino-1-[4-(2-fluorophenoxy)-2-methylphenyl]pyrazole-4-carbonyl]-5-(difluoromethoxy)-1H-indol-6-yl]methanesulfonamide], the IC50 on human Yes1 enzyme (setting [1]) was 1.6 nM; at human Src enzyme (setting [1]), 35 nM; at human Lck enzyme (setting [1]), 10 nM.

With `Cc1cc(-n2ncc(C(=O)c3cc4cc(F)c(NS(N)(=O)=O)cc4[nH]3)c2N)ccc1Oc1ccccc1F` [Example 4-20-003, 2-[5-amino-1-[4-(2-fluorophenoxy)-3-methylphenyl]pyrazole-4-carbonyl]-5-fluoro-6-(sulfamoylamino)-1H-indole], the IC50 at human Yes1 enzyme (setting [1]) was 1.4 nM; on human Src enzyme (setting [1]), 15 nM; at human Lck enzyme (setting [1]), 2.1 nM.

Turning to `Cc1cc2cc(C(=O)c3cnn(-c4ccc(Oc5ncccc5Cl)cc4Cl)c3N)[nH]c2cc1NS(=O)(=O)N1CCOCC1` [Example 5-1-065, N-[2-[5-amino-1-[2-chloro-4-(3-chloropyridin-2-yl)oxyphenyl]pyrazole-4-carbonyl]-5-methyl-1H-indol-6-yl]morpholine-4-sulfonamide], the figures for the IC50 at human Yes1 enzyme, at human Src enzyme and at human Lck enzyme were 7.7 nM, 350 nM and 120 nM, respectively.

As to `Cc1cc(Oc2ccccc2F)ncc1-n1ncc(C(=O)c2cc3cc(F)c(NS(=O)(=O)CC(=O)N4CCOCC4)cc3[nH]2)c1N` [Example 4-10-006, N-[2-[5-amino-1-[6-(2-fluorophenoxy)-4-methylpyridin-3-yl]pyrazole-4-carbonyl]-5-fluoro-1H-indol-6-yl]-2-morpholin-4-yl-2-oxoethanesulfonamide], the IC50 on human Yes1 enzyme (setting [1]) is 1 nM; on human Src enzyme (setting [1]) it was 37 nM; on human Lck enzyme (setting [1]), 19 nM.

On to `CS(=O)(=O)Nc1cc2[nH]c(C(=O)c3cnn(-c4c(Cl)cc(Oc5ccccc5F)cc4Cl)c3N)cc2cc1F` [Example 5-1-023, N-[2-[5-amino-1-[2,6-dichloro-4-(2-fluorophenoxy)phenyl]pyrazole-4-carbonyl]-5-fluoro-1H-indol-6-yl]methanesulfonamide], for which the IC50 amounted to 16 nM at human Yes1 enzyme, 240 nM at human Src enzyme and 64 nM at human Lck enzyme.

Consider `Cc1cc(Oc2c(F)cccc2F)ncc1-n1ncc(C(=O)c2cc3cc(OC4CCN(C(C)C)CC4)c(F)cc3[nH]2)c1N` [Example 5-1-204, [5-amino-1-[6-(2,6-difluorophenoxy)-4-methylpyridin-3-yl]pyrazol-4-yl]-[6-fluoro-5-(1-propan-2-ylpiperidin-4-yl)oxy-1H-indol-2-yl] methanone], for which the values for the IC50 on human Yes1 enzyme, at human Src enzyme and at human Lck enzyme were 0.5 nM, 10 nM and 6.7 nM, respectively.

In the case of `COc1cc2cc(C(=O)c3cnn(-c4cnc(Oc5ccccc5F)cc4C)c3N)[nH]c2cc1Br` [Example 5-1-145, [5-amino-1-[6-(2-fluorophenoxy)-4-methylpyridin-3-yl]pyrazol-4-yl]-(6-bromo-5-methoxy-1H-indol-2-yl)methanone], the IC50 at human Yes1 enzyme was 1.6 nM; at human Src enzyme it was 16 nM; on human Lck enzyme, 8.2 nM.

In the case of `Cc1cc(Oc2ccccc2Cl)cc(F)c1-n1ncc(C(=O)c2cc3cc(NS(C)(=O)=O)c(F)cc3[nH]2)c1N` [Example 4-2-102, N-[2-[5-amino-1-[4-(2-chlorophenoxy)-2-fluoro-6-methylphenyl]pyrazole-4-carbonyl]-6-fluoro-1H-indol-5-yl]methanesulfonamide], the results for the IC50 at human Yes1 enzyme (setting [1]), at human Src enzyme (setting [1]) and on human Lck enzyme (setting [1]) were 0.89 nM, 48 nM and 3.9 nM, respectively.

As for `Cc1cc(Oc2ccccc2F)ccc1-n1ncc(C(=O)c2cc3cc(F)c(NS(=O)(=O)c4cccc(Cl)n4)cc3[nH]2)c1N` [Example 5-1-527, N-[2-[5-amino-1-[4-(2-fluorophenoxy)-2-methylphenyl]pyrazole-4-carbonyl]-5-fluoro-1H-indol-6-yl]-6-chloropyridine-2-sulfonamide], the IC50 on human Yes1 enzyme (setting [1]) was found to be 3.2 nM; at human Src enzyme (setting [1]), 500 nM; at human Lck enzyme (setting [1]) it was 110 nM.

For `Cc1cc(Oc2ccccc2F)ccc1-n1ncc(C(=O)c2cc3cc(OCC(F)F)c(NS(=O)(=O)c4cccc(Cl)c4)cc3[nH]2)c1N` [Example 5-1-417, N-[2-[5-amino-1-[4-(2-fluorophenoxy)-2-methylphenyl]pyrazole-4-carbonyl]-5-(2,2-difluoroethoxy)-1H-indol-6-yl]-3-chlorobenzenesulfonamide], the IC50 at human Yes1 enzyme (setting [1]) worked out at 5.8 nM; at human Src enzyme (setting [1]), 240 nM; at human Lck enzyme (setting [1]), 130 nM.

Take `Cc1cc(Oc2ccccc2)cc(F)c1-n1ncc(C(=O)c2cc3cc(NS(C)(=O)=O)c(F)cc3[nH]2)c1N` [Example 4-2-103, N-[2-[5-amino-1-(2-fluoro-6-methyl-4-phenoxyphenyl)pyrazole-4-carbonyl]-6-fluoro-1H-indol-5-yl]methanesulfonamide]: the IC50 at human Yes1 enzyme (setting [1]) was found to be 0.41 nM; at human Src enzyme (setting [1]), 7 nM; at human Lck enzyme (setting [1]), 0.97 nM.

With `Cc1cc(Oc2ccccc2F)ccc1-n1ncc(C(=O)c2cc3cc(N4CCOCC4)c(N4C(=O)NC(C)(C)C4=O)cc3[nH]2)c1N` [Example 5-1-117, 3-[2-[5-amino-1-[4-(2-fluorophenoxy)-2-methylphenyl]pyrazole-4-carbonyl]-5-morpholin-4-yl-1H-indol-6-yl]-5,5-dimethylimidazolidine-2,4-dione], the values for the IC50 at human Yes1 enzyme, on human Src enzyme and on human Lck enzyme were 0.48 nM, 5 nM and 1.3 nM, respectively.

For the compound `Cc1cc(Oc2ccccc2F)ncc1-n1ncc(C(=O)c2cc3cc(OCC(F)F)c(N4CCOC4=O)cc3[nH]2)c1N` [Example 4-25-016, 3-{2-{5-amino-1-[6-(2-fluorophenoxy)-4-methylpyridin-3-yl]pyrazole-4-carbonyl}-5-(2,2-difluoroethoxy)-1H-indol-6-yl}-1,3-oxazolidin-2-one], the IC50 on human Yes1 enzyme (setting [1]) worked out at 0.48 nM; at human Src enzyme (setting [1]), 13 nM; at human Lck enzyme (setting [1]), 1.5 nM.

With `Cc1cc(Oc2c(F)cccc2F)ncc1-n1ncc(C(=O)c2cc3cc(C(C)C)c(NS(=O)(=O)C4CCCCC4)cc3[nH]2)c1N` [Example 5-1-304, N-[2-[5-amino-1-[6-(2,6-difluorophenoxy)-4-methylpyridin-3-yl]pyrazole-4-carbonyl]-5-propan-2-yl-1H-indol-6-yl] cyclohexanesulfonamide], the IC50 on human Yes1 enzyme came out at 32 nM; at human Src enzyme, 1300 nM; at human Lck enzyme, 400 nM.

As to `Cc1cc(Oc2c(F)cccc2Cl)ncc1-n1ncc(C(=O)c2cc3cc(Cl)c(NS(C)(=O)=O)cc3[nH]2)c1N` [Example 4-2-089, N-[2-[5-amino-1-[6-(2-chloro-6-fluorophenoxy)-4-methylpyridin-3-yl]pyrazole-4-carbonyl]-5-chloro-1H-indol-6-yl]methanesulfonamide], the IC50 turned out to be 2.7 nM on human Yes1 enzyme (setting [1]), 180 nM on human Src enzyme (setting [1]) and 13 nM on human Lck enzyme (setting [1]).

`Cc1cc(Oc2ccccc2F)cc(F)c1-n1ncc(C(=O)c2cc3cc(F)c(NS(C)(=O)=O)cc3[nH]2)c1N` [Example 4-7-003, N-[2-[5-amino-1-[2-fluoro-4-(2-fluorophenoxy)-6-methylphenyl]pyrazole-4-carbonyl]-5-fluoro-1H-indol-6-yl]methanesulfonamide]: the figures for the IC50 on human Yes1 enzyme (setting [1]), on human Src enzyme (setting [1]) and at human Lck enzyme (setting [1]) were 1 nM, 19 nM and 7.1 nM, respectively.

For `Cc1cc(Oc2ccccc2F)cc(F)c1-n1ncc(C(=O)c2cc3cc(F)c(NS(=O)(=O)C4CC4)cc3[nH]2)c1N` [Example 4-7-004, N-[2-[5-amino-1-[2-fluoro-4-(2-fluorophenoxy)-6-methylphenyl]pyrazole-4-carbonyl]-5-fluoro-1H-indol-6-yl]cyclopropanesulfonamide], the IC50 at human Yes1 enzyme (setting [1]) came out at 4.8 nM; at human Src enzyme (setting [1]), 220 nM; on human Lck enzyme (setting [1]), 40 nM.
